Activity calls are given as the source filed them.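 How the source made its calls: active means dose-dependent block of Kir2.1 potassium channel current at -100 mV within the tested dose range; inactive means no dose-dependent block of that current.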
Target: Inward rectifier potassium channel 2 (Mus musculus) (UniProt P35561)
Assay: blockers of mouse Kir2.1 inward rectifier current – cell-based, IonWorks automated patch clamp, -100 mV, SAR follow-up (AID 504559)
Conditions: Kir2.1 cell line, IonWorks patch clamp current at -100 mV; for current change, negative = inhibition: at 30 µM (top of the series)

Inward rectifier potassium channel 2 (Mus musculus), sequence (P35561 whole entry, looked up): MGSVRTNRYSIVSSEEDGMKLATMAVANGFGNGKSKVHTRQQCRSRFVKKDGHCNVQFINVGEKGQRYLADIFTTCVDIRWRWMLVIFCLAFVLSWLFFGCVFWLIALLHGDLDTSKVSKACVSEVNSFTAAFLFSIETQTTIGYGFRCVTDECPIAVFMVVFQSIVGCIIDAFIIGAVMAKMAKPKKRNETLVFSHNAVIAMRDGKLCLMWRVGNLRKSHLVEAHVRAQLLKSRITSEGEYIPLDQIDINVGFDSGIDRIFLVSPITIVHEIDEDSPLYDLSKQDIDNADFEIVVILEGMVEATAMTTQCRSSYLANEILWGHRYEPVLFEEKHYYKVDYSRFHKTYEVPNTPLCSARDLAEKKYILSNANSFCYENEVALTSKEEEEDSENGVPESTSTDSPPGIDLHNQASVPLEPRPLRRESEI

Row | current change, negative = inhibition | IC50 [µM] | SMILES
1 | inactive | – | Cc1ccc2nc(NCc3ccccc3)[nH]c2c1
2 | – | 21.3 | C[C@H](NS(=O)(=O)c1ccc(Br)cc1)c1ccccc1
3 | inactive | – | C[C@H](NS(C)(=O)=O)c1ccccc1
4 | inactive | – | c1ccc(CNc2c3ccccc3nc3ccccc23)cc1
5 | inactive | – | C[C@H](NS(=O)(=O)c1cc(Cl)cc(Cl)c1O)c1ccccc1
6 | – | 30.9 | C[C@H](NS(=O)(=O)c1cccc(Br)c1)c1ccccc1
7 | inactive | – | C[C@H](NS(=O)(=O)c1ccccc1Br)c1ccccc1
8 | – | 20.5 | Cc1ccc(C)c(OCCCNCc2ccccc2)c1
9 | – | 30.6 | C[C@@H](NS(=O)(=O)c1cccc(Br)c1)c1ccccc1
10 | – | 21.6 | C[C@H](NS(=O)(=O)c1ccc(Cl)cc1)c1ccccc1
11 | inactive | – | Cc1ccc(S(=O)(=O)N[C@H](C)c2ccccc2)cc1
12 | inactive | – | O=C(NCC1CCCCN1)c1cc(OCC(F)(F)F)ccc1OCC(F)(F)F (configuration not stated)
13 | inactive | – | Cc1noc(C)c1COC(=O)CCN1c2ccccc2Sc2ccccc21
14 | – | 11.4 | CC(O)CNCCCOc1cccc(Oc2ccccc2)c1 (configuration not stated)
15 | inactive | – | Cc1ccc(Nc2cc(C)nc3c(C)cccc23)cc1
16 | inactive | – | C[C@@H](NS(=O)(=O)c1cc(Cl)cc(Cl)c1O)c1ccccc1
17 | inactive | – | C[C@@H](NS(=O)(=O)c1ccccc1Br)c1ccccc1
18 | inactive | – | C[C@@H](NS(=O)(=O)c1ccc(Cl)cc1)c1ccccc1
19 | inactive | – | Cc1ccc2nc(N3CCN(CCO)CC3)nc(-c3ccccc3)c2c1
20 | inactive | – | C[C@H](NS(=O)(=O)c1ccccc1)c1ccccc1
21 | inactive | – | C[C@@H](NS(=O)(=O)c1ccccc1)c1ccccc1
22 | inactive | – | C[C@@H](NS(C)(=O)=O)c1ccccc1

From PubChem BioAssay AID504559 (Johns Hopkins Ion Channel Center, 2011)
